Test results from patent US20210330611A1, “THERAPY FOR NEUROLOGICAL DISEASES/DISORDERS” (priority 2020, published 2021).
Read-outs that look alike come from different tables or passages of the source.

Columns and labels:
[1] = tested on: fibrin- and LPS-induced microglia activation; assay: cells; format: cell-based, rat
[2] = tested on: LPS-induced microglia activation; assay: Image-based assay of LPS-induced microglia activation (HTS and dose response); format: cell-based, rat; settings: for inhibition at 10 µM: Rattus norvegicus, Microglia, read-out: LPS % inhibition
[3] = tested on: fibrin-induced microglia activation; assay: Image-based assay of fibrin-induced microglia activation (HTS and dose response); format: cell-based, rat; settings: primary microglia HTS, fibrin stimulation; for inhibition at 10 µM: Rattus norvegicus, Microglia, read-out: Fibrin % inhibition
[4] = tested on: primary rat microglia
[5] = tested on: primary rat microglia; assay: Cell toxicity (dead cells, size <150 μm2) in coated fibrin (cFib) assay; settings: primary microglia HTS;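 note: share of dead cells sized under 150 µm2 at 10 µM in fibrin-stimulated microglia HTS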
[6] = classification by fibrin and LPS inhibition in HTS
[7] = cell size >800 μm2 as marker of activation
[8] = fibrin stimulation, cell size <150 μm2 as marker of toxicity
[9] = classification by fibrin and LPS inhibition, HTS at 10 μM
[10] = primary microglia HTS, LPS stimulation, compounds at 10 μM
[11] = fibrin assay, dead cells (size <150 μm2), compounds at 10 μM
[12] = quadrant by fibrin and LPS inhibition, HTS at 10 μM
[13] = fibrin assay, dead cells (size <150 μm2)

Compound | Quadrant (FIG. 5b) [1, 6] | inhibition at 10 µM ([2]; 48 h) [%] | inhibition at 10 µM [3, 7] [%] | LPS % cell toxicity ([4]; rat) [%] | Fibrin % cell toxicity [5, 8] [%] | Quadrant (FIG. 5b) [1, 9] | inhibition at 10 µM [2, 10] [%] | inhibition at 10 µM ([3]; compounds at 10 μM) [%] | Fibrin % cell toxicity [5, 11] [%] | Quadrant (FIG. 5b) [1, 12] | LPS % inhibition [2, 10] [%] | Fibrin % inhibition ([3]; compounds at 10 μM) [%] | Fibrin % cell toxicity [5, 13] [%] | LPS % cell toxicity [4] [%]
CCC(=O)c1ccc(O)cc1 [Paroxypropione] | Q4 | 17 | -11 | 0 | 1 | – | – | – | – | – | – | – | – | –
CCOC(=S)SSC(=S)OCC [Dixanthogen] | – | – | – | 0 | – | Q4 | 17 | 4 | 1 | – | – | – | – | –
COc1ccc(-c2cc(=O)c3c(O)cc(O[C@@H]4O[C@H](CO[C@@H]5O[C@@H](C)[C@H](O)[C@@H](O)[C@H]5O)[C@@H](O)[C@H](O)[C@H]4O)cc3o2)cc1O [Diosmin] | – | – | – | 0 | – | Q4 | 10 | -12 | 1 | – | – | – | – | –
N[C@H](Cc1ccccc1)C(=O)O [D-phenylalanine] | – | – | – | 0 | – | Q4 | 23 | 1 | 1 | – | – | – | – | –
Nc1ccc([As](=O)(O)O)cc1 [Arsanilic Acid] | – | – | – | 0 | – | – | – | – | – | Q4 | 12 | −42 | 0 | –
Cc1nc2ccccn2c(=O)c1CCN1CCC(C(=O)c2ccc(F)cc2)CC1 [Pirenperone] | Q4 | 20 | 2 | 0 | 1 | – | – | – | – | – | – | – | – | –
CC(C)[N+](C)(CCOC(=O)C1c2ccccc2Oc2ccccc21)C(C)C [Propantheline] | Q4 | 20 | -7 | 0 | 1 | – | – | – | – | – | – | – | – | –
O=C1[C@H](CC[C@H](O)c2ccc(F)cc2)[C@@H](c2ccc(O)cc2)N1c1ccc(F)cc1 [Ezetimibe] | – | – | – | 0 | – | Q4 | 27 | 41 | 1 | – | – | – | – | –
CCOc1cc(CC(=O)N[C@@H](CC(C)C)c2ccccc2N2CCCCC2)ccc1C(=O)O [Repaglinide] | Q4 | 18 | -14 | 0 | 1 | – | – | – | – | – | – | – | – | –
OC[C@@H](O)[C@@H](O)CO [Erythritol] | – | – | – | 0 | – | Q4 | 10 | -25 | 1 | – | – | – | – | –
COCCCOc1cc(C[C@@H](C[C@H](N)[C@@H](O)C[C@H](C(=O)NCC(C)(C)C(N)=O)C(C)C)C(C)C)ccc1OC [Aliskiren] | – | – | – | 0 | – | – | 21 | 2 | – | Q4 | – | – | 1 | –
Arsenic Trioxide | – | – | – | – | – | – | – | – | – | Q4 | 14 | 14 | 1 | 0
COC(=O)N[C@H](C(=O)N[C@@H](Cc1ccccc1)[C@@H](O)CN(Cc1ccc(-c2ccccn2)cc1)NC(=O)[C@@H](NC(=O)OC)C(C)(C)C)C(C)(C)C [Atazanavir] | – | – | – | 1 | – | – | 13 | -17 | – | Q4 | – | – | 0 | –
OCC(O)CN1CCN(c2ccccc2)CC1 (stereo not drawn) [Dropropizine] | – | – | – | 0 | – | Q4 | 11 | -26 | 1 | – | – | – | – | –
NCc1cccnc1 [Picolamine] | Q4 | 4 | -1 | 0 | 1 | – | – | – | – | – | – | – | – | –
CC1(C)S[C@@H]2[C@H](NC(=O)COc3ccccc3)C(=O)N2[C@H]1C(=O)O [Phenoxymethylpenicillin] | Q4 | 14 | 0 | 0 | 1 | – | – | – | – | – | – | – | – | –
CC(O)Cn1cnc2c1c(=O)n(C)c(=O)n2C (stereo not drawn) [Proxyphylline] | Q4 | 11 | -21 | 0 | 1 | – | – | – | – | – | – | – | – | –
CCC(=O)Oc1ccc2c(c1)CC[C@@H]1[C@@H]2CC[C@]2(C)[C@@H](OC(=O)CC)CC[C@@H]12 [Estradiol Dipropionate] | – | – | – | 1 | – | Q4 | 17 | 0 | 1 | – | – | – | – | –
